Measured values published in PubChem BioAssay (NCI).
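Protocol summary: plate cells (96-well), add compound at 5 concentrations, incubate 48 h, interpolate endpoints linearly. TGI marks complete inhibition of growth.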

How the values were obtained:
Experiment in all cases: inhibition of tumour cell growth, NCI panel, 48 h
786-0 renal = system: 786-0 renal
A498 renal = system: A498 renal
A549 NSCLC = system: A549 NSCLC
ACHN renal = system: ACHN renal
BT-549 breast = system: BT-549 breast
CAKI-1 renal = system: CAKI-1 renal
CCRF-CEM leukemia = system: CCRF-CEM leukemia
COLO 205 colon = system: COLO 205 colon
DU-145 prostate = system: DU-145 prostate
EKVX NSCLC = system: EKVX NSCLC
HCT-116 colon = system: HCT-116 colon
HCT-15 colon = system: HCT-15 colon
HL-60(TB) leukemia = system: HL-60(TB) leukemia
HOP-62 NSCLC = system: HOP-62 NSCLC
HOP-92 NSCLC = system: HOP-92 NSCLC
HS 578T breast = system: HS 578T breast
HT29 colon = system: HT29 colon
IGROV1 ovarian = system: IGROV1 ovarian
K-562 leukemia = system: K-562 leukemia
KM12 colon = system: KM12 colon
LOX IMVI melanoma = system: LOX IMVI melanoma
M14 melanoma = system: M14 melanoma
MALME-3M melanoma = system: MALME-3M melanoma
MCF7 breast = system: MCF7 breast
MDA-MB-231 breast = system: MDA-MB-231 breast
MDA-MB-435 = system: MDA-MB-435
MDA-N = system: MDA-N
MOLT-4 leukemia = system: MOLT-4 leukemia
NCI-H226 lung = system: NCI-H226 lung
NCI-H23 lung = system: NCI-H23 lung
NCI-H460 lung = system: NCI-H460 lung
NCI/ADR-RES ovarian = system: NCI/ADR-RES ovarian
OVCAR-3 ovarian = system: OVCAR-3 ovarian
OVCAR-4 ovarian = system: OVCAR-4 ovarian
OVCAR-5 ovarian = system: OVCAR-5 ovarian
OVCAR-8 ovarian = system: OVCAR-8 ovarian
PC-3 prostate = system: PC-3 prostate
RPMI-8226 leukemia = system: RPMI-8226 leukemia
RXF 393 renal = system: RXF 393 renal
SF-268 CNS = system: SF-268 CNS
SF-295 CNS = system: SF-295 CNS
SF-539 CNS = system: SF-539 CNS
SK-MEL-2 melanoma = system: SK-MEL-2 melanoma
SK-MEL-28 melanoma = system: SK-MEL-28 melanoma
SK-MEL-5 melanoma = system: SK-MEL-5 melanoma
SK-OV-3 ovarian = system: SK-OV-3 ovarian
SN12C renal = system: SN12C renal
SNB-19 CNS = system: SNB-19 CNS
SNB-75 CNS = system: SNB-75 CNS
SW-620 colon = system: SW-620 colon
T-47D breast = system: T-47D breast
TK-10 renal = system: TK-10 renal
U251 CNS = system: U251 CNS
UACC-257 melanoma = system: UACC-257 melanoma
UACC-62 melanoma = system: UACC-62 melanoma
UO-31 renal = system: UO-31 renal
HCC-2998 colon = system: HCC-2998 colon
NCI-H522 lung = system: NCI-H522 lung

Q: With `Cc1nn(-c2ccccc2)c(C)c1/C=N/N=C1\S/C(=C\c2ccc(Cl)cc2)C(=O)N1c1ccccc1` as the compound, how does the TGI (786-0 renal) read?
A: Its TGI is 7.89 µM.

Q: And the TGI (A498 renal)?
A: Its TGI is over 100 µM.

Q: And the TGI (A549 NSCLC)?
A: The TGI was over 100 µM.

Q: What about the TGI (ACHN renal) of the same compound?
A: The TGI was over 100 µM.

Q: What about the TGI (BT-549 breast) of the same compound?
A: The TGI was over 100 µM.

Q: And the TGI (CAKI-1 renal)?
A: The TGI was over 100 µM.

Q: What about the TGI (CCRF-CEM leukemia) of the same compound?
A: Its TGI is over 100 µM.

Q: And the TGI (COLO 205 colon)?
A: The TGI was over 100 µM.

Q: What about the TGI (DU-145 prostate) of the same compound?
A: The TGI was over 100 µM.

Q: What about the TGI (EKVX NSCLC) of the same compound?
A: Its TGI is over 100 µM.

Q: What about the TGI (HCT-116 colon) of the same compound?
A: Its TGI is over 100 µM.

Q: What about the TGI (HCT-15 colon) of the same compound?
A: Its TGI is over 100 µM.

Q: And the TGI (HL-60(TB) leukemia)?
A: The TGI was 24.4 µM.

Q: What about the TGI (HOP-62 NSCLC) of the same compound?
A: Its TGI is over 100 µM.

Q: What about the TGI (HOP-92 NSCLC) of the same compound?
A: Its TGI is over 100 µM.

Q: And the TGI (HS 578T breast)?
A: Its TGI is 60.9 µM.

Q: And the TGI (HT29 colon)?
A: Its TGI is over 100 µM.

Q: What about the TGI (IGROV1 ovarian) of the same compound?
A: The TGI was over 100 µM.

Q: And the TGI (K-562 leukemia)?
A: Its TGI is over 100 µM.

Q: And the TGI (KM12 colon)?
A: The TGI was over 100 µM.

Q: And the TGI (LOX IMVI melanoma)?
A: Its TGI is over 100 µM.

Q: What about the TGI (M14 melanoma) of the same compound?
A: Its TGI is over 100 µM.

Q: And the TGI (MALME-3M melanoma)?
A: Its TGI is over 100 µM.

Q: And the TGI (MCF7 breast)?
A: The TGI was over 100 µM.

Q: And the TGI (MDA-MB-231 breast)?
A: The TGI was over 100 µM.

Q: What about the TGI (MDA-MB-435) of the same compound?
A: Its TGI is over 100 µM.

Q: What about the TGI (MDA-N) of the same compound?
A: The TGI was over 100 µM.

Q: What about the TGI (MOLT-4 leukemia) of the same compound?
A: Its TGI is 27.2 µM.

Q: And the TGI (NCI-H226 lung)?
A: The TGI was over 100 µM.

Q: What about the TGI (NCI-H23 lung) of the same compound?
A: The TGI was over 100 µM.

Q: And the TGI (NCI-H460 lung)?
A: Its TGI is over 100 µM.

Q: What about the TGI (NCI/ADR-RES ovarian) of the same compound?
A: The TGI was over 100 µM.

Q: And the TGI (OVCAR-3 ovarian)?
A: The TGI was over 100 µM.

Q: What about the TGI (OVCAR-4 ovarian) of the same compound?
A: The TGI was 4.74 µM.

Q: And the TGI (OVCAR-5 ovarian)?
A: Its TGI is over 100 µM.

Q: What about the TGI (OVCAR-8 ovarian) of the same compound?
A: The TGI was over 100 µM.

Q: What about the TGI (PC-3 prostate) of the same compound?
A: Its TGI is over 100 µM.

Q: What about the TGI (RPMI-8226 leukemia) of the same compound?
A: The TGI was over 100 µM.

Q: And the TGI (RXF 393 renal)?
A: Its TGI is 84.3 µM.

Q: What about the TGI (SF-268 CNS) of the same compound?
A: The TGI was over 100 µM.

Q: And the TGI (SF-295 CNS)?
A: Its TGI is over 100 µM.

Q: What about the TGI (SF-539 CNS) of the same compound?
A: Its TGI is over 100 µM.

Q: What about the TGI (SK-MEL-2 melanoma) of the same compound?
A: The TGI was over 100 µM.

Q: And the TGI (SK-MEL-28 melanoma)?
A: Its TGI is over 100 µM.

Q: And the TGI (SK-MEL-5 melanoma)?
A: Its TGI is over 100 µM.

Q: What about the TGI (SK-OV-3 ovarian) of the same compound?
A: Its TGI is over 100 µM.

Q: What about the TGI (SN12C renal) of the same compound?
A: The TGI was over 100 µM.

Q: What about the TGI (SNB-19 CNS) of the same compound?
A: The TGI was over 100 µM.

Q: And the TGI (SNB-75 CNS)?
A: Its TGI is 71.8 µM.

Q: And the TGI (SW-620 colon)?
A: The TGI was over 100 µM.

Q: What about the TGI (T-47D breast) of the same compound?
A: The TGI was over 100 µM.

Q: And the TGI (TK-10 renal)?
A: The TGI was over 100 µM.

Q: And the TGI (U251 CNS)?
A: Its TGI is over 100 µM.

Q: And the TGI (UACC-257 melanoma)?
A: Its TGI is over 100 µM.

Q: And the TGI (UACC-62 melanoma)?
A: Its TGI is over 100 µM.

Q: And the TGI (UO-31 renal)?
A: The TGI was over 100 µM.

Q: With `NCC(O)CSCc1ccc(Cl)cc1` (stereo not given) as the compound, how does the TGI (786-0 renal) read?
A: Its TGI is over 100 µM.

Q: And the TGI (A498 renal)?
A: Its TGI is over 100 µM.

Q: And the TGI (A549 NSCLC)?
A: Its TGI is over 100 µM.

Q: What about the TGI (ACHN renal) of the same compound?
A: The TGI was over 100 µM.

Q: And the TGI (BT-549 breast)?
A: Its TGI is over 100 µM.

Q: What about the TGI (CAKI-1 renal) of the same compound?
A: Its TGI is over 100 µM.

Q: What about the TGI (CCRF-CEM leukemia) of the same compound?
A: The TGI was over 100 µM.

Q: What about the TGI (COLO 205 colon) of the same compound?
A: The TGI was over 100 µM.

Q: What about the TGI (DU-145 prostate) of the same compound?
A: The TGI was over 100 µM.

Q: And the TGI (HCC-2998 colon)?
A: Its TGI is over 100 µM.

Q: And the TGI (HCT-116 colon)?
A: The TGI was over 100 µM.

Q: What about the TGI (HCT-15 colon) of the same compound?
A: The TGI was over 100 µM.

Q: What about the TGI (HL-60(TB) leukemia) of the same compound?
A: Its TGI is over 100 µM.

Q: And the TGI (HOP-62 NSCLC)?
A: The TGI was over 100 µM.

Q: And the TGI (HOP-92 NSCLC)?
A: Its TGI is over 100 µM.

Q: What about the TGI (HS 578T breast) of the same compound?
A: Its TGI is over 100 µM.

Q: What about the TGI (HT29 colon) of the same compound?
A: The TGI was over 100 µM.

Q: What about the TGI (IGROV1 ovarian) of the same compound?
A: Its TGI is over 100 µM.

Q: What about the TGI (K-562 leukemia) of the same compound?
A: The TGI was over 100 µM.

Q: What about the TGI (KM12 colon) of the same compound?
A: The TGI was over 100 µM.

Q: What about the TGI (LOX IMVI melanoma) of the same compound?
A: The TGI was over 100 µM.

Q: What about the TGI (M14 melanoma) of the same compound?
A: The TGI was over 100 µM.

Q: What about the TGI (MALME-3M melanoma) of the same compound?
A: The TGI was over 100 µM.

Q: And the TGI (MCF7 breast)?
A: The TGI was over 100 µM.

Q: What about the TGI (MDA-MB-231 breast) of the same compound?
A: Its TGI is over 100 µM.

Q: And the TGI (MDA-MB-435)?
A: The TGI was over 100 µM.

Q: And the TGI (MDA-N)?
A: Its TGI is over 100 µM.

Q: What about the TGI (MOLT-4 leukemia) of the same compound?
A: Its TGI is over 100 µM.

Q: What about the TGI (NCI-H226 lung) of the same compound?
A: The TGI was over 100 µM.

Q: What about the TGI (NCI-H23 lung) of the same compound?
A: Its TGI is over 100 µM.

Q: And the TGI (NCI-H460 lung)?
A: Its TGI is over 100 µM.

Q: And the TGI (NCI-H522 lung)?
A: Its TGI is over 100 µM.

Q: What about the TGI (NCI/ADR-RES ovarian) of the same compound?
A: The TGI was over 100 µM.

Q: And the TGI (OVCAR-3 ovarian)?
A: The TGI was over 100 µM.

Q: What about the TGI (OVCAR-4 ovarian) of the same compound?
A: Its TGI is over 100 µM.

Q: And the TGI (OVCAR-5 ovarian)?
A: Its TGI is over 100 µM.

Q: What about the TGI (OVCAR-8 ovarian) of the same compound?
A: The TGI was over 100 µM.

Q: What about the TGI (PC-3 prostate) of the same compound?
A: Its TGI is over 100 µM.

Q: What about the TGI (RPMI-8226 leukemia) of the same compound?
A: Its TGI is over 100 µM.

Q: And the TGI (RXF 393 renal)?
A: The TGI was over 100 µM.

Q: And the TGI (SF-268 CNS)?
A: Its TGI is over 100 µM.

Q: What about the TGI (SF-295 CNS) of the same compound?
A: The TGI was over 100 µM.

Q: What about the TGI (SK-MEL-28 melanoma) of the same compound?
A: Its TGI is over 100 µM.

Q: And the TGI (SK-MEL-5 melanoma)?
A: The TGI was over 100 µM.

Q: What about the TGI (SK-OV-3 ovarian) of the same compound?
A: The TGI was over 100 µM.

Q: And the TGI (SN12C renal)?
A: The TGI was over 100 µM.

Q: And the TGI (SNB-19 CNS)?
A: The TGI was over 100 µM.

Q: What about the TGI (SW-620 colon) of the same compound?
A: Its TGI is over 100 µM.

Q: What about the TGI (T-47D breast) of the same compound?
A: Its TGI is over 100 µM.

Q: What about the TGI (TK-10 renal) of the same compound?
A: Its TGI is over 100 µM.

Q: And the TGI (U251 CNS)?
A: Its TGI is over 100 µM.

Q: What about the TGI (UACC-257 melanoma) of the same compound?
A: The TGI was over 100 µM.

Q: And the TGI (UACC-62 melanoma)?
A: The TGI was over 100 µM.

Q: What about the TGI (UO-31 renal) of the same compound?
A: The TGI was over 100 µM.
